Reference: publication PMC10683025, “Discovery of a Hydroxylamine-Based Brain-Penetrant EGFR Inhibitor for Metastatic Non-Small-Cell Lung Cancer” (Journal of Medicinal Chemistry, 2023)
pIC50, pKd: −log10 of the molar value. Where two headings read alike, the source gives them in different places.

Experiments:
[1] = biological target: T1, AURKB (Homo sapiens, UniProt Q96GD4); experiment: KINOMEScan; format: binding; conditions: read-out: Percent Control
T1 construct: purchased Eurofins DiscoverX (KINOMEscan)

[2] = biological target: T2, ASK1 (Homo sapiens, UniProt Q99683); experiment: KINOMEScan; format: binding; conditions: ASK1, 1 µM; read-out: Percent Control
T2 construct: purchased Eurofins DiscoverX (KINOMEscan)

[3] = biological target: T3, CYP2C9 (Homo sapiens, UniProt P11712); format: in vitro ADME; conditions: liver microsomes
T3 construct: tissue BD Gentest; host or cells: pooled human liver microsomes
Protocol: The activities tested were CYP1A2-mediated phenacetin O-demethylation, CYP2C19-mediated (S)-mephenyotin 4′-hydroxylation, CYP2C9-mediated diclofenac 4′-hydroxylation, CYP2D6-mediated dextromethorphan O-demethylation, and CYP3A4-mediated midazolam 1′-hydroxylation. […] The reactions were initiated by adding NADPH (1 mM final concentration) after a 5 min preincubation, and the assay was run in duplicate (n = 2). Samples were analyzed by ultra-performance liquid chromatography tandem mass spectrometry (UPLC-MS/MS).

[4] = biological target: T4, YSK1 (Homo sapiens, UniProt O00506); experiment: KINOMEScan; format: binding; conditions: YSK1, 1 µM; read-out: Percent Control
T4 construct: purchased Eurofins DiscoverX (KINOMEScan service)

[5] = biological target: T5, DRAK1 (Homo sapiens, UniProt Q9UEE5); experiment: KINOMEScan KdELECT Kd determination; format: binding; conditions: read-out: Kinase Kd
T5 construct: purchased Eurofins DiscoverX (contract assay)
T5 sequence (Q9UEE5 1-414): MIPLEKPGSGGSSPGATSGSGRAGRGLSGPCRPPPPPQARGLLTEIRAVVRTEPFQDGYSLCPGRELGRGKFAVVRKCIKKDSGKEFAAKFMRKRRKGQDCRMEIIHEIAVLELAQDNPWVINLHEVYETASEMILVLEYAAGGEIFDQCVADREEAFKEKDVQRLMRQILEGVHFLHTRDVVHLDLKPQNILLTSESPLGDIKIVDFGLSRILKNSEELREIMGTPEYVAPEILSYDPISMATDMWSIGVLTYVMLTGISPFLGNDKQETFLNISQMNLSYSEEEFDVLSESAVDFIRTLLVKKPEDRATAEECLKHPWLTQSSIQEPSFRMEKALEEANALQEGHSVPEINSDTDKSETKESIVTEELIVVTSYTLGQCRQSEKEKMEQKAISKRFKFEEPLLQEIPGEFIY
Protocol: (§1) In vitro kinase activity (inhibitor binding constants (Kd) and biochemical inhibition (IC50’s)) were assessed by Eurofins DiscoverX (Kd determinations) and Eurofins Cerep (biochemical IC50 determinations).

[6] = biological target: T6, ERBB2 (Homo sapiens, UniProt P04626); experiment: KINOMEScan KdELECT Kd determination; format: binding; conditions: read-out: Kinase Kd
T6 construct: purchased Eurofins DiscoverX (contract assay)
Protocol: as §1

[7] = biological target: T7, LYN (Homo sapiens, UniProt P07948); experiment: KINOMEScan KdELECT Kd determination; format: binding; conditions: read-out: Kinase Kd
T7 construct: purchased Eurofins DiscoverX (contract assay)
Protocol: as §1

[8] = biological target: T8, BCR-ABLwt (Phos.) (Homo sapiens, UniProt P00519); experiment: KINOMEScan KdELECT Kd determination; format: binding; conditions: read-out: Kinase Kd
T8 construct: purchased Eurofins DiscoverX (contract assay)
Protocol: as §1

[9] = biological target: T9, BCR-ABLwt (Nonphos.) (Homo sapiens, UniProt P00519); experiment: KINOMEScan KdELECT Kd determination; format: binding; conditions: read-out: Kinase Kd
T9 construct: purchased Eurofins DiscoverX (contract assay)
Protocol: as §1

[10] = biological target: T10, WNK4 (Homo sapiens, UniProt Q96J92); experiment: KINOMEScan; format: binding; conditions: WNK4, 1 µM; read-out: Percent Control
T10 construct: purchased Eurofins DiscoverX (KINOMEScan service)
From the text: (§2) Percent control was mapped onto the kinome tree using TREEspot.

[11] = biological target: T11, AURKA (Homo sapiens, UniProt O14965); experiment: KINOMEScan; format: binding; conditions: read-out: Percent Control
T11 construct: purchased Eurofins DiscoverX (KINOMEscan)

[12] = biological target: T12, ACVR2B (Homo sapiens, UniProt Q13705); experiment: KINOMEScan; format: binding; conditions: read-out: Percent Control
T12 construct: purchased Eurofins DiscoverX (KINOMEscan)
From the text: as §2

[13] = biological target: T13, ABL1(Q252H)-nonphosphorylated (Homo sapiens, UniProt P00519, Q252H); experiment: KINOMEScan; format: binding; conditions: read-out: Percent Control
T13 construct: purchased Eurofins DiscoverX
From the text: as §2

[14] = biological target: T14, ABL1(F317I)-nonphosphorylated (Homo sapiens, UniProt P00519, F317I); experiment: KINOMEScan; format: binding; conditions: read-out: Percent Control
T14 construct: purchased Eurofins DiscoverX
From the text: as §2

[15] = biological target: T15, ARK5 (Homo sapiens, UniProt O60285); experiment: KINOMEScan; format: binding; conditions: ARK5, 1 µM; read-out: Percent Control
T15 construct: purchased Eurofins DiscoverX (KINOMEscan)
From the text: as §2

[16] = test system: luciferase-tagged HCC827 cells implanted into the brains; experiment: Intracranial PDX model; format: in vivo, BALB/c nude mice; conditions: 10 mg/kg PO b.i.d.
Protocol: Animal experiments were performed at Pharmaron, Inc. and animal use was approved by Pharmaron’s Institutional Animal Care and Use Committee (IACUC) in Pharmaron (Pharmaron IACUC, Protocol #PK-M-07182022, #PK-R-06012022, and #ON-CELL-XEN-06012022) following the guidance of AAALAC. Six- to eight-week-old male Sprague-Dawley rats (approximately 200–300 g) obtained from Si Bei Fu Laboratory Animal Technology Co., six- to eight-week-old male CD1 mice (approximately 20–30 g) obtained from Si Bei Fu Laboratory Animal Technology Co., and six- to eight-week-old female BALB/c nude mice (approximately 20–30 g) obtained from Si Bei Fu Laboratory Animal Technology Co., were used in the pharmacokinetic studies. Six- to eight-week-old female BALB/c nude mice (approximately 18–22 g) obtained from Beijing Anikeeper Biotech Co., Ltd. were used in the intracranial PDX study. Animals were housed at 20–25 °C with humidity ranging from 40 to 70% relative humidity, were exposed to 12 h light and dark cycles, and were supplied with food and water ab libitum.
HCC827 cells stably expressing luciferase (HCC827-luc) were injected intracranially. Briefly, 3 × 10^5 HCC827-luc tumor cells suspended in 2 μL of RPMI1640 medium were injected into the right forebrain of anesthetized mice (anesthetic: intramuscular injection of ZoletlTM 50 (Virbac S.A)). Mice were imaged biweekly using IVIS Lumina III (PerkinElmer). Images were acquired 10 min post intraperitoneal (IP) injection with 15 mg/mL (at 5 μL/g body weight) of D-luciferin in anesthetized mice (anesthetic: 1–2% isoflurane inhalation). On day 20 postcellular inoculation, mice were randomized into 2 treatment groups (n = 10 mice per group): (1) 1% methylcellulose as vehicle control and (2) 9 (10 mg/kg) (formulation: 1% methylcellulose), PO, b.i.d. (twice daily) dosing (12 h intervals) × 7 days for 21 days. Body weights of all mice were measured biweekly throughout the study and BW change, expressed in % was calculated using the following formula: [drawing 5] where BWDay X is the BW on a given day and BWDay 0 is BW on day 0 (initiation of treatment).

[17] = test system: TA1535; set-up: species or system Salmonella

T1 sequence (Q96GD4 whole entry): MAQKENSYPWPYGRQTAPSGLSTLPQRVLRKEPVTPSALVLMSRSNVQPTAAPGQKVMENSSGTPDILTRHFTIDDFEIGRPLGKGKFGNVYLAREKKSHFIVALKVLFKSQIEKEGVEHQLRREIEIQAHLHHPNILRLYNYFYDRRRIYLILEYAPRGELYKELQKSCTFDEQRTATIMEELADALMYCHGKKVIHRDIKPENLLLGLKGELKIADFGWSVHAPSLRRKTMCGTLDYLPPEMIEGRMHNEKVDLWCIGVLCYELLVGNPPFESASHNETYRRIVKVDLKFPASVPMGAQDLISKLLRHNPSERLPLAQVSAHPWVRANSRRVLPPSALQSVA
T12 sequence (Q13705 19-512): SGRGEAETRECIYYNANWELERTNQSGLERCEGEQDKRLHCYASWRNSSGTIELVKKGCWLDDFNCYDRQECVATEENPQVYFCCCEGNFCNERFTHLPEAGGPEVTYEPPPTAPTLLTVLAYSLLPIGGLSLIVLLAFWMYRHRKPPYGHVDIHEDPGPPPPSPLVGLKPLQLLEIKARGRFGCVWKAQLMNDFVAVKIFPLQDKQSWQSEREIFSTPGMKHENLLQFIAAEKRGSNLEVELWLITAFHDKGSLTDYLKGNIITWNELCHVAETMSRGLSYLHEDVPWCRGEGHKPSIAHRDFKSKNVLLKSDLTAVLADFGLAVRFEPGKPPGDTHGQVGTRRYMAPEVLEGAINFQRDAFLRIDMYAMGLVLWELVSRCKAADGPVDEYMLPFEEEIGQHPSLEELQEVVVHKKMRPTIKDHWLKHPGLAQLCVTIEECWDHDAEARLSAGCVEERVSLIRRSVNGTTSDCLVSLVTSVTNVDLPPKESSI
T7 sequence (P07948 whole entry): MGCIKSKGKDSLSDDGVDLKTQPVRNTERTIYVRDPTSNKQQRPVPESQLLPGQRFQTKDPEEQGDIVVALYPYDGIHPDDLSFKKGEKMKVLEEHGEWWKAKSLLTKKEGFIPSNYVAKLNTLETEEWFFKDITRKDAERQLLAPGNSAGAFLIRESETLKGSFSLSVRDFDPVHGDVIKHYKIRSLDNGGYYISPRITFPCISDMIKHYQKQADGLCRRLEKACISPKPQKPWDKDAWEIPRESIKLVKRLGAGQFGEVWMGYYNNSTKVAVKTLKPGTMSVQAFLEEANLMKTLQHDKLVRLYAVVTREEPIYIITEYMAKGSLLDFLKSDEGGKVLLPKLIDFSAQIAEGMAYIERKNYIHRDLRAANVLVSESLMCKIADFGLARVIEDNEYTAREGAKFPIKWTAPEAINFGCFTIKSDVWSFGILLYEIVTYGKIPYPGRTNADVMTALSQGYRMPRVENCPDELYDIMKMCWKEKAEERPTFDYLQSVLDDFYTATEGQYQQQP
T6 sequence (P04626 23-1255): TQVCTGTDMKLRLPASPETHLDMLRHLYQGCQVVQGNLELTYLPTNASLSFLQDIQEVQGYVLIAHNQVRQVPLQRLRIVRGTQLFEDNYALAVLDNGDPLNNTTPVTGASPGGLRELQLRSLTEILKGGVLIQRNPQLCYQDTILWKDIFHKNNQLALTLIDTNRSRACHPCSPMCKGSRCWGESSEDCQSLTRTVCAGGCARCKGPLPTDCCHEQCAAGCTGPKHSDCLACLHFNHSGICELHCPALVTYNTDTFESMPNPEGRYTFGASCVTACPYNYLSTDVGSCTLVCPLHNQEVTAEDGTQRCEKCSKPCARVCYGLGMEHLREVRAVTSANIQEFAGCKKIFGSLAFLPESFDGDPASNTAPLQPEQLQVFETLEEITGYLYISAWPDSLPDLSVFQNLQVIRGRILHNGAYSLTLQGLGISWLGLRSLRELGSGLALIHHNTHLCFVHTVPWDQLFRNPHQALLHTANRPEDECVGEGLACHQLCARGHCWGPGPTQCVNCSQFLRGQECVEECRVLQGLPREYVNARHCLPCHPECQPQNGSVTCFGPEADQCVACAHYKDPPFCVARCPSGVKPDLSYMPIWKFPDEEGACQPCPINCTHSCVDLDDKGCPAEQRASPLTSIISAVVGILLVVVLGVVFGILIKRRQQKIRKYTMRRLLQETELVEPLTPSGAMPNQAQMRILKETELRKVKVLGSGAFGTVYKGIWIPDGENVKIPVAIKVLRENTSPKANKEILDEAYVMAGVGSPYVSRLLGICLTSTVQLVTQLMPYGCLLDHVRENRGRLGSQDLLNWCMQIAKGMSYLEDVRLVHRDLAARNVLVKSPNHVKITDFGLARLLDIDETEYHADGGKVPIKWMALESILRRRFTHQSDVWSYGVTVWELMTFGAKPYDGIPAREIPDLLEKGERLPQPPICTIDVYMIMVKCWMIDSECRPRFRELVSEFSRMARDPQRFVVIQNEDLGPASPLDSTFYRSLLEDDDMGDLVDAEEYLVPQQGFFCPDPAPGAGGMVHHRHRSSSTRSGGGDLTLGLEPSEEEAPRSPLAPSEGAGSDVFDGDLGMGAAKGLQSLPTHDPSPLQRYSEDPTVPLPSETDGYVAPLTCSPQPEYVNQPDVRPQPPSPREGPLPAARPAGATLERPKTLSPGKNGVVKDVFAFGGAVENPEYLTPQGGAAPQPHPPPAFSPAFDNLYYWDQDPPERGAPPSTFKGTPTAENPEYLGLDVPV
T2 sequence (Q99683 whole entry): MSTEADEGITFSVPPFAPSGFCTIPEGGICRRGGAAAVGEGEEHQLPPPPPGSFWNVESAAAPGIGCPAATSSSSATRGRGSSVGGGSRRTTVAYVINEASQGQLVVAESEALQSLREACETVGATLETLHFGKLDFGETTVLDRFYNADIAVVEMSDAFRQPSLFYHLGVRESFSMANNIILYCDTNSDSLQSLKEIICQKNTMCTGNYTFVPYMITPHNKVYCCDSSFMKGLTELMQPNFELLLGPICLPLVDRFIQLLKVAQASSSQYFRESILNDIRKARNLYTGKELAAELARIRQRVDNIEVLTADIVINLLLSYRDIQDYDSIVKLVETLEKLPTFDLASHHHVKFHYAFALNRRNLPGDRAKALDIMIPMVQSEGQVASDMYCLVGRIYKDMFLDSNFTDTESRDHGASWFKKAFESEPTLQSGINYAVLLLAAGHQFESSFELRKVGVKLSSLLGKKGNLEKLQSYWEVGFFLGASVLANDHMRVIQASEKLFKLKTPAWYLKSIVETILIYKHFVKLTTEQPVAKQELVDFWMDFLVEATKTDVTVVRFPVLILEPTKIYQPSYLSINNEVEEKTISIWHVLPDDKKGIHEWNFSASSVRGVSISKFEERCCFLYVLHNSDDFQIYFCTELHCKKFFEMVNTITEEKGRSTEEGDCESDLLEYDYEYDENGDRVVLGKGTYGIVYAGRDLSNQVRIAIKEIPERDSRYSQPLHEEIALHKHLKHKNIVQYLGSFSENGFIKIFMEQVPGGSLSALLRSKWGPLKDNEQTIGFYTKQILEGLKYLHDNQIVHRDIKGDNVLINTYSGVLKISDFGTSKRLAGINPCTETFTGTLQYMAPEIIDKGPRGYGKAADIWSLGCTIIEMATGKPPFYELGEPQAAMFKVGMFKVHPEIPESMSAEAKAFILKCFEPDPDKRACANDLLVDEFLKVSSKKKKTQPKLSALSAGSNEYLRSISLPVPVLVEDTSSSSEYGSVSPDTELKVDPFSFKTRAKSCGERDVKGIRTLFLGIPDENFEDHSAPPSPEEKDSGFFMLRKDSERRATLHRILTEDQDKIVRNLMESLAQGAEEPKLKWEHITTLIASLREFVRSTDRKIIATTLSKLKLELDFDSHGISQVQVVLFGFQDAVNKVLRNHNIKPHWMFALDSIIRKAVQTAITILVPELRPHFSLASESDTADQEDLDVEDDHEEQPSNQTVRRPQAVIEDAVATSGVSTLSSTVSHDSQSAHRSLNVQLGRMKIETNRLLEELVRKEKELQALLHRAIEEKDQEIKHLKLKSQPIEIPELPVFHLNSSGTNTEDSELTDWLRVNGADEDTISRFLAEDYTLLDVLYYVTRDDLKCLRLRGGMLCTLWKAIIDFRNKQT
T3 sequence (P11712 whole entry): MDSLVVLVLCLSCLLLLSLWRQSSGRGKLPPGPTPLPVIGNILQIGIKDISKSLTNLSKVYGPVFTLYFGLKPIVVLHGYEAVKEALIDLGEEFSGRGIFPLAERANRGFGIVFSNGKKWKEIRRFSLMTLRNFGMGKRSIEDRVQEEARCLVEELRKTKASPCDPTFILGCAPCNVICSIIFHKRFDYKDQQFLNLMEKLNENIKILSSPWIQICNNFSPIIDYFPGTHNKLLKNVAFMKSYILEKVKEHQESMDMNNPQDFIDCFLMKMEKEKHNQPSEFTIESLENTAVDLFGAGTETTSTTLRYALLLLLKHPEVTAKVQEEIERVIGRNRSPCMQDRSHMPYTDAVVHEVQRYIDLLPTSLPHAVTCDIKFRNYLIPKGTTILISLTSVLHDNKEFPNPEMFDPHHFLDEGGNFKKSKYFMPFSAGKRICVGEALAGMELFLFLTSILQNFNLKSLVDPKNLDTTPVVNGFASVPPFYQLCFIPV
T11 sequence (O14965 whole entry): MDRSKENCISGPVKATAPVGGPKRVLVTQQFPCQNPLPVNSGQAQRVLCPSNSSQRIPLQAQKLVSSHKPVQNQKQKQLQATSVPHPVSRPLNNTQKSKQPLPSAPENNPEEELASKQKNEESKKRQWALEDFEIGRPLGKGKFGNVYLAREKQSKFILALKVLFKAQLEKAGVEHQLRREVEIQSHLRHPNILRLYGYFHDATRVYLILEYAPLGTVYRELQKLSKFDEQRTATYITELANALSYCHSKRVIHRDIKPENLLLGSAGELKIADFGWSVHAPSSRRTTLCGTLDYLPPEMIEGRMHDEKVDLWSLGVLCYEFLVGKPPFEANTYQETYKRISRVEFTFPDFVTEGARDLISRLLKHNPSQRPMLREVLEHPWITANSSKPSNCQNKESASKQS

For COc1cc2ncnc(Nc3cccc(Cl)c3F)c2cc1OCCON1CCN(C)CC1 [Compound 9, N-(3-Chloro-2-fluorophenyl)-7-methoxy-6-(2-((4-methylpiperazin-1-yl)oxy)ethoxy)quinazolin-4-amine], the remaining binding at 1 µM [1] was 84%, the remaining binding at 1 µM [2] was 100% and the pIC50 [3] was < 4.52. For the same compound, the remaining binding at 1 µM [4] was 94%, the pKd [5] was 7.06 and the pKd [6] was 7.68. It also gave a pKd [7] of 6.96, a pKd [8] of 6.74 and a pKd [9] of 6.59. For the same compound, the remaining binding at 1 µM [10] was 95%, the remaining binding at 1 µM [11] was 75% and the remaining binding at 1 µM [12] was 100%. For the same compound, the remaining binding at 1 µM [13] was 6.7%, the remaining binding at 1 µM [14] was 54% and the remaining binding at 1 µM [15] was 100%. For the same compound, the “mean body weight loss” value ([16]; 21-day treatment window) was ≤ 10%, the adverse clinical events ([16]; 21 days) was “no adverse clinical events were observed” and the “intracranial tumor response relative to vehicle control (bioluminescence)” value ([16]; 21 days, P = 0.0059) was “profound tumor regression”. For the same compound, the “Count (# of wells)” value ([17]; TA1535+S9, 1.0E-04 M) was 0, the “Positive Significance (- to +++)” value ([17]; TA1535+S9, 1.0E-04 M) was “-” and the “Count (# of wells)” value ([17]; TA1535+S9, 1.0E-05 M) was 3. The “Positive Significance (- to +++)” value ([17]; TA1535+S9, 1.0E-05 M) was “-”, the “Count (# of wells)” value ([17]; TA1535+S9, 5.0E-05 M) was 0 and the “Positive Significance (- to +++)” value ([17]; TA1535+S9, 5.0E-05 M) was “-”. For the same compound, the “Count (# of wells)” value ([17]; TA1535+S9, 5.0E-06 M) was 1, the “Positive Significance (- to +++)” value ([17]; TA1535+S9, 5.0E-06 M) was “-” and the “Count (# of wells)” value ([17]; TA1535-S9, 1.0E-04 M) was 0. For the same compound, the “Positive Significance (- to +++)” value ([17]; TA1535-S9, 1.0E-04 M) was “-”, the “Count (# of wells)” value ([17]; TA1535-S9, 1.0E-05 M) was 0 and the “Positive Significance (- to +++)” value ([17]; TA1535-S9, 1.0E-05 M) was “-”. The “Count (# of wells)” value ([17]; TA1535-S9, 5.0E-05 M) was 0, the “Positive Significance (- to +++)” value ([17]; TA1535-S9, 5.0E-05 M) was “-” and the “Count (# of wells)” value ([17]; TA1535-S9, 5.0E-06 M) was 0. The “Positive Significance (- to +++)” value ([17]; TA1535-S9, 5.0E-06 M) was “-”.
